Where two headings read alike, the source gives them in different places.
Legend:
[1] = tested on: A. baumannii ATCC BAA-1605; assay: C. elegans infection model (bacterial burden and survival); format: in vivo, Caenorhabditis elegans; details: 8 × MIC
Description: (§1) (A) Evaluation of toxicity of peptides in Caenorhabditis elegans. C. elegans strain glp-4;sek 1 was grown for four days in the presence of peptides at different concentrations. Worms were monitored daily and the live worms were counted. Results are expressed as a Kaplan-Meier survival curve. (B) Evaluation of antimicrobial activity of peptides to reduce the bacterial CFU inside infected Caenorhabditis elegans. […] After treatment, worms were lysed and bacteria were counted. […] Results are expressed as means from three biological replicates ± standard deviation. (C) Efficacy of peptides in a Caenorhabditis elegans model of bacterial infection. […] Worms were monitored daily and the live worms were counted. Results are expressed as a Kaplan-Meier survival curve. C. elegans receiving no treatment served as a negative control.
(§2) Infection and treatment of C. elegans was done, as described previously, with the following modifications, [53], [54]. […] After infection, worms were collected and washed with PBS three times. Worms (~30 per sample) were transferred either to microcentrifuge tubes (for survival assessment) or 96-well plates (for bacterial CFU determination). […] Untreated worms served as a negative control. To assess the survival of infected C. elegans, worms were assessed for viability (live worms are sinusoidal with movement, whereas dead worms are rigid rods). In order to assess the bacterial load in worms, worms were first washed three times with PBS. They were subsequently lysed by addition of 200 mg of 1.0-mm silicon carbide particles (Biospec Products, Bartlesville, OK) to each tube and vortexing for one minute. Bacteria were plated onto TSA plates containing 100 µg/ml ampicillin to permit the selective growth of P. aeruginosa and A. baumannii over Escherichia coli OP50.

P. aeruginosa PAO1 = assay: as above; format: in vivo, Caenorhabditis elegans; details: 8 × MIC
Description: as §1, §2

[2] = tested on: colistin-resistant P. aeruginosa 1109; assay: as above; format: in vivo, Caenorhabditis elegans
Description: as §1, §2

IL-6 = assay: Anti-inflammatory effect on LPS-stimulated macrophages, ELISA; format: cell-based, murine; details: J774A.1 cells, LPS 150 ng/mL, six hours
Description: (§3) Figure 3 Ability of peptides to neutralize LPS and reduce inflammatory cytokines expression. (A) LPS binding activity of peptides. Peptides at different concentrations were incubated with one endotoxin unit (EU) of LPS at 37 °C for 30 minutes. […] The binding of peptides with LPS is expressed as percent change relative to the untreated samples. (B) Anti-inflammatory effect of peptides on LPS-stimulated macrophages. J774A.1 cells were stimulated with LPS (150 ng/mL final concentration) in the presence of different concentrations of peptides. Cells stimulated with LPS alone and untreated cells served as controls. Cells were incubated for six hours at 37 °C before the supernatant from each treatment group was collected. Detection of tumor necrosis factor-α (TNF-α) and interleukin-6 (IL-6) in supernatants was determined using ELISA. Cytokine levels are expressed as percent change relative to the LPS-stimulated control. Statistical analysis was calculated using one-way ANOVA, with post hoc Tukey’s multiple comparisons test. P < 0.05 was considered significant. One asterisk (*) indicates significant difference with the negative control.
(§4) To assess the anti-inflammatory effect of our peptides on LPS-stimulated macrophages, J774A.1 cells were seeded and incubated as described above (for toxicity assessment). Next, the cells were stimulated with LPS (150 ng/ml final concentration) in the presence of different concentrations of peptides (RR and D-RR4). Cells stimulated with LPS alone and untreated cells served as controls. Cells were incubated for six hours at 37 °C and the supernatant from each treatment was collected and stored at −20 °C until use. Tumor necrosis factor-α (TNF-α) and interleukin-6 (IL-6) present in the supernatant was quantified using ELISA, as described previously. Cytokine levels were presented as the percent change relative to the LPS-stimulated control, using triplicate samples for each treatment condition.

TNF-α = assay: as above; format: cell-based, murine; details: J774A.1 cells, LPS 150 ng/mL, six hours
Description: as §3, §4

[3] = tested on: P. aeruginosa and A. baumannii isolates
Source text: (§5) The broth microdilution technique was utilized to assess the MIC of designed peptides according to the guidelines of the Clinical and Laboratory Standards Institute (CLSI)[37].

[4] = tested on: colistin-resistant P. aeruginosa isolated from cystic fibrosis patients
Source text: as §5

[5] = tested on: P. aeruginosa PAO1 biofilm; assay: Disruption of established biofilms, microtiter dish crystal violet assay; format: cell-based; details: mature (24 hour) biofilm, 24 hours at 37 °C, crystal violet OD 595 nm
Description: Figure 1 Efficacy of peptides on established biofilms of P. aeruginosa PAO1 and A. baumannii ATCC BAA-1605. […] After incubation, wells were washed and biofilms were stained with 0.5% (w/v) crystal violet for 30 minutes. The dye was solubilized with ethanol (95%) and the optical density (595 nm) of the biofilm mass was measured. Experiments were repeated twice independently and the average values are reported.
To examine the peptides’ ability to disrupt bacterial biofilms, the microtiter dish biofilm formation assay was employed[41]–[43].

[6] = tested on: LPS-induced activation of the LAL enzyme (Limulus amoebocyte lysate); assay: Binding of peptides to lipopolysaccharide (LAL assay); format: biochemical; details: one EU of LPS, 37 °C, 30 minutes
Description: as §3
To determine the peptides’ ability to bind to LPS, a Limulus amoebocyte lysate (LAL) kit (Genscript, USA Inc.) was utilized, as described in previous reports. The peptides were dissolved in pyrogen-free water and serially diluted in the same solvent. The peptides were then incubated with one endotoxin unit (EU) of LPS at 37 °C for 30 minutes in order to permit the peptides to bind LPS. The reaction mixture (50 μL) was added to 50 μL of LAL reagent, and further incubated for 10 minutes. Next, 100 μL of LAL chromogenic substrate was added. The mixture was incubated at 37 °C for six minutes. The optical density (at 545 nm) was determined using a microplate reader. Colistin was used as a positive control. The binding of peptides with LPS was expressed as the percent change relative to the untreated control.

## Colistin [reference compound]
[1]
  reduction of bacterial burden (CFU) in infected worms: 96%
[1]; 36 hours
  worms remaining alive: remained alive
[1]; after 72 hours
  worms remaining alive: 80–85%
P. aeruginosa PAO1
  reduction of bacterial burden (CFU) in infected worms: 89%
P. aeruginosa PAO1; 24 and 36 hours
  protection of infected worms (survival): nearly complete protection
[2]; D-RR4 8 × MIC, colistin 1 × MIC, after 24 hours
  protection of infected worms (survival): failed to protect worms from death
[2]; in vivo
  reduction of bacterial burden (CFU) in infected worms: unable to significantly decrease bacterial burden
IL-6; 10 µM
  decrease of IL-6 production: > 95%
IL-6; 20 µM
  decrease of IL-6 production: > 95%
TNF-α; 10 µM
  decrease of TNF-α production: > 95%
TNF-α; 20 µM
  decrease of TNF-α production: > 95%
[3]; MIC that inhibited growth of 50% of all isolates (Table 2)
  MIC50: 0.25 µM
[3]; MIC that inhibited growth of 90% of all isolates (Table 2)
  MIC90: 0.5 µM
[4]; strain 1125
  MIC: 32 µM
[4]; strain 1131
  MIC: 64 µM
[4]; strain 1133
  MIC: 32 µM
[4]; strain 1603
  MIC: 64 µM
[5]; 4 × MIC
  biofilm mass disrupted: more than 10%
[5]; 8 × MIC
  biofilm mass disrupted: > 25%
[5]; 16 × MIC
  biofilm mass disrupted: > 28%
[5]; 32 × MIC
  biofilm mass disrupted: > 75%
[6]; 5 µM peptide
  inhibition of LPS-induced activation of the LAL enzyme: 51.2%
[6]; 10 µM peptide
  inhibition of LPS-induced activation of the LAL enzyme: 83.0%
[6]; 15 µM peptide
  inhibition of LPS-induced activation of the LAL enzyme: Complete inhibition
[6]; 20 µM peptide
  inhibition of LPS-induced activation of the LAL enzyme: Complete inhibition
